Assay results as given in patent publication US20160158179A1, “NANOEMULSION THERAPEUTIC COMPOSITIONS AND METHODS OF USING THE SAME” (THE REGENTS OF THE UNIVERSITY OF MICHIGAN, priority 2008, published 2016).
≈ marks a conversion by molar mass, not a printed value.

Tests used:
Pseudomonas aeruginosa [1] = assay: MIC determination, CLSI microdilution with alamar blue; format: cell-based; conditions: Pseudomonas aeruginosa (n = 5); nanoemulsions in the presence of 5 mM EDTA; in µg/mL
[2] = test system: H. influenzae clinical isolates; assay: MIC and MBC susceptibility assays (CLSI); format: cell-based, Haemophilus influenzae
[3] = test system: Pseudomonas, Burkholderia, Acinetobacter and Stenotrophomonas; assay: MIC and MBC determination (CLSI, alamar blue), all strains of Example 8
[4] = test system: Stenotrophomonas maltophilia; assay: MIC and MBC determination (CLSI, alamar blue), CF isolates
Burkholderia cenocepacia = assay: as above
[5] = test system: H. influenzae clinical isolates; conditions: ATCC H. influenzae 49247 quality control isolate; acceptable QC range; cited from earlier work
Pseudomonas aeruginosa [6] = assay: MIC and MBC determination (CLSI, alamar blue), CF isolates; conditions: Pseudomonas
Acinetobacter baumannii [7] = assay: MIC and MBC determination (CLSI, alamar blue)
[8] = test system: Stenotrophomonas maltophilia; assay: MIC determination, CLSI microdilution with alamar blue; format: cell-based; conditions: S. maltophilia (n = 5)
Acinetobacter baumannii [9] = assay: as above; format: cell-based; conditions: A. baumannii (n = 5)

Q: For Gentamicin, which “MIC Range” value (Pseudomonas aeruginosa [1]) is on record?
A: <=2-4

Q: Which results are given for CO/N=C(\C(=O)N[C@@H]1C(=O)N2C(C(=O)[O-])=C(C[N+]3(C)CCCC3)CS[C@H]12)c1csc(N)n1 [Cefepime]?
A: susceptibility of the majority of isolates by MIC90 values [2]: susceptible; MIC 50 ([2]; Haemophilus influenzae, all H. influenzae strains of Table 6, control antibiotics): 0.125 µg/mL (≈ 0.26 µM); MIC 90 [3]: ≥ 2 µg/mL; MBC ([3]; read-out: MBC90): > 32 µg/mL; MIC 50 ([4]; Stenotrophomonas): >32 µg/mL; MIC 90 ([4]; Stenotrophomonas): >32 µg/mL; MIC 90 ([4]; Stenotrophomonas maltophilia): > 32 µg/mL; MIC 90 (Burkholderia cenocepacia; Burkholderia): >32 µg/mL; MIC 50 (Burkholderia cenocepacia; Burkholderia cenocepacia): 32 µg/mL (≈ 66.6 µM); MIC 90 (Burkholderia cenocepacia; Burkholderia cenocepacia): > 32 µg/mL; QC MIC range [5]: C (QC MIC range is 0.5-2) μg/ml; MIC 50 (Pseudomonas aeruginosa [6]): 2 µg/mL (≈ 4.16 µM); MIC 90 (Pseudomonas aeruginosa [6]): 32 µg/mL (≈ 66.6 µM); MIC 50 (Acinetobacter baumannii [7]; Acinetobacter): 32 µg/mL (≈ 66.6 µM); MIC 90 (Acinetobacter baumannii [7]; Acinetobacter): >32 µg/mL; MIC 50 (Acinetobacter baumannii [7]; Acinetobacter baumannii): 32 µg/mL (≈ 66.6 µM); MIC 90 (Acinetobacter baumannii [7]; Acinetobacter baumannii): > 32 µg/mL

Q: What does the source list for O=C(O)CN(CCN(CC(=O)O)CC(=O)O)CC(=O)O [EDTA, ethylenediaminetetraacetic acid]?
A: EDTA concentration inhibiting growth of H. influenzae ([2]; EDTA alone): ≥ 2 mM; number of strains inhibited by EDTA alone [8]: 5; number of strains inhibited by EDTA alone (Acinetobacter baumannii [9]): 3
